# Tests used:
# [1] = biological target: T1, Histone-lysine N-methyltransferase EHMT2 (Homo sapiens, UniProt Q96KQ7)
# T1 sequence (Q96KQ7 whole entry): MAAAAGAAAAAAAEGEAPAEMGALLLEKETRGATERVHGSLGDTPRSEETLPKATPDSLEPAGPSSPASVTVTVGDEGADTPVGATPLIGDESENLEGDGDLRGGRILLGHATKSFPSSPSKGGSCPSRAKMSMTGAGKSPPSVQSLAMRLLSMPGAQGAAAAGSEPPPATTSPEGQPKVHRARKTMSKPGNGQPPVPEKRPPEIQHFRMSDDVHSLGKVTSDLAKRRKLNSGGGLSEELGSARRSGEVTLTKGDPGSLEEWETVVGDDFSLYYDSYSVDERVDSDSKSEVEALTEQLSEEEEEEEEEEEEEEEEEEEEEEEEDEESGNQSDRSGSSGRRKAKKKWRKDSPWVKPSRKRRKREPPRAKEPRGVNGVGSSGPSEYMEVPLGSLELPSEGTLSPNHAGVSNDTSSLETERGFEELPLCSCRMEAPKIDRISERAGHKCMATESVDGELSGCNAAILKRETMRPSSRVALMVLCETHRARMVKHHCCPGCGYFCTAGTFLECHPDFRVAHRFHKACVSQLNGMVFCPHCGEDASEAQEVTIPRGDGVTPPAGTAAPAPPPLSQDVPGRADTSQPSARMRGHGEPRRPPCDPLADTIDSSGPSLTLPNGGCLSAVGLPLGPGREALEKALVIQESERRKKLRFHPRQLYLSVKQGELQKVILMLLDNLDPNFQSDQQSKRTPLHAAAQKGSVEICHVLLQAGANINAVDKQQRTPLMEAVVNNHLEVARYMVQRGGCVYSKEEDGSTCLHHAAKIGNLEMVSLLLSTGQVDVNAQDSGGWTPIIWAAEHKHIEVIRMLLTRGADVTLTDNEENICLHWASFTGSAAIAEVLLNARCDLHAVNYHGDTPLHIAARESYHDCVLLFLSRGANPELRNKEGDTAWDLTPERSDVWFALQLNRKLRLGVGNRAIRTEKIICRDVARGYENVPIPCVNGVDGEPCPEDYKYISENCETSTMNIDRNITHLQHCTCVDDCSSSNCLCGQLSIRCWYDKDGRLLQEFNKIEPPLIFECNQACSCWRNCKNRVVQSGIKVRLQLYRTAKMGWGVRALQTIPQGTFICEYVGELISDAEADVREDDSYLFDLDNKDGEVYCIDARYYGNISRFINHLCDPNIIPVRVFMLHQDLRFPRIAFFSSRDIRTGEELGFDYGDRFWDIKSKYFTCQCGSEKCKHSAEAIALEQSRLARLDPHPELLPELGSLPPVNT
# Description: Inhibition of lysine methyltransferase G9a (unknown origin) using [3H]-SAM as substrate after 0.25 hrs by scintillation proximity assay
# [2] = test system: Liver; assay: Half life in mouse liver microsomes; type: ADME, Microsome
# [3] = biological target: T1, Histone-lysine N-methyltransferase EHMT2; remark: listed apart in the source
# Description: Inhibition of lysine methyltransferase G9a in human MDA-MB-231 cells assessed as reduction of H3K9me2 cellular level by immunofluorescence in-cell Western assay
# [4] = test system: MDA-MB-231; assay: cells; conditions: Homo sapiens, MDA-MB-231, 48 h
# Description: Cytotoxicity against human MDA-MB-231 cells after 48 hrs by Alamar Blue assay
# [5] = Cmax in Swiss albino mouse brain at 5 mg/kg, ip; type: ADME, organism-based; parameters: dose 5 mg/kg, route intraperitoneal
# [6] = AUC (0 to 24 hrs) in Swiss albino mouse brain at 5 mg/kg, ip; type: ADME, organism-based; parameters: time < 24 hr, dose 5 mg/kg, route intraperitoneal
# [7] = test system: Plasma; assay: Cmax in Swiss albino mouse plasma at 5 mg/kg, ip; type: ADME, organism-based; parameters: dose 5 mg/kg, route intraperitoneal; conditions: in vivo
# [8] = biological target: Histamine H3 receptor (Homo sapiens, UniProt Q9Y5N1); assay: Binding affinity to histamine H3 receptor (unknown origin) by radioligand binding assay
# Chain of Histamine H3 receptor (Q9Y5N1 whole entry): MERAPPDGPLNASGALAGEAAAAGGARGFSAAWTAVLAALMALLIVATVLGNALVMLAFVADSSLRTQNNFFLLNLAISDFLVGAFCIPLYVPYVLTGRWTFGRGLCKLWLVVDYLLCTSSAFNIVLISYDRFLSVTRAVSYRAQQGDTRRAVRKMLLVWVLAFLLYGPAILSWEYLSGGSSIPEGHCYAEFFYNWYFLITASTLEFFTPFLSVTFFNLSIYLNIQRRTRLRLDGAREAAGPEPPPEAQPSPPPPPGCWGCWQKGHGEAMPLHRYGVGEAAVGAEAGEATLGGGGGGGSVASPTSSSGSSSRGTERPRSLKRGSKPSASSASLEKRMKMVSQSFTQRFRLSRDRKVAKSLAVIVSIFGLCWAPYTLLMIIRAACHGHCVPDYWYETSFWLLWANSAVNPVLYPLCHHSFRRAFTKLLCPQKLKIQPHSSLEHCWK
# [9] = test system: PANC-1; assay: Cytotoxicity against human PANC1 cells after 48 hrs by Alamar Blue assay; type: cell-based; conditions: PANC-1, 48 h
# [10] = Binding affinity to sigma 2 receptor (unknown origin) by radioligand binding assay; parameters: species or system Homo sapiens
# [11] = test system: PC-3; assay: Cytotoxicity against human PC3 cells after 48 hrs by Alamar Blue assay; type: cell-based; conditions: PC-3, 48 h
# [12] = biological target: T2, Alpha-2C adrenergic receptor (Homo sapiens, UniProt P18825); assay: Binding affinity to adrenergic alpha2C receptor (unknown origin) by radioligand binding assay
# T2 sequence (P18825 whole entry): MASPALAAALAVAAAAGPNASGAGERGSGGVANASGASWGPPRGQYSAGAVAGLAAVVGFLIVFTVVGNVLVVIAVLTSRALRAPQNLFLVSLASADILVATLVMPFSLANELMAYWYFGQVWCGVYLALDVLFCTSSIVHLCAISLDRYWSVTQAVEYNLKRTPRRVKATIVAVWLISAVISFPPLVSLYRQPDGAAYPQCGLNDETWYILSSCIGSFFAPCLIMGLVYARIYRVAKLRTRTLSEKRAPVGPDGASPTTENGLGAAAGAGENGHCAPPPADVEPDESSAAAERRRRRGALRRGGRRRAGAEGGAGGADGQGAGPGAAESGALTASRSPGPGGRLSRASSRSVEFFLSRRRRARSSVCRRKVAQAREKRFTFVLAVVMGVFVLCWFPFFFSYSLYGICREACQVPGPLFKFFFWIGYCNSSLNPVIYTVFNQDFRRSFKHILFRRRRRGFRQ
# [13] = test system: Nucleic Acid; assay: Ratio of drug level in brain to plasma in Swiss albino mouse at 5 mg/kg, ip; type: ADME, organism-based; parameters: dose 5 mg/kg, route intraperitoneal
# [14] = biological target: T3, Alpha-1D adrenergic receptor (Homo sapiens, UniProt P25100); assay: Binding affinity to adrenergic alpha1D receptor (unknown origin) by radioligand binding assay
# T3 sequence (P25100 whole entry): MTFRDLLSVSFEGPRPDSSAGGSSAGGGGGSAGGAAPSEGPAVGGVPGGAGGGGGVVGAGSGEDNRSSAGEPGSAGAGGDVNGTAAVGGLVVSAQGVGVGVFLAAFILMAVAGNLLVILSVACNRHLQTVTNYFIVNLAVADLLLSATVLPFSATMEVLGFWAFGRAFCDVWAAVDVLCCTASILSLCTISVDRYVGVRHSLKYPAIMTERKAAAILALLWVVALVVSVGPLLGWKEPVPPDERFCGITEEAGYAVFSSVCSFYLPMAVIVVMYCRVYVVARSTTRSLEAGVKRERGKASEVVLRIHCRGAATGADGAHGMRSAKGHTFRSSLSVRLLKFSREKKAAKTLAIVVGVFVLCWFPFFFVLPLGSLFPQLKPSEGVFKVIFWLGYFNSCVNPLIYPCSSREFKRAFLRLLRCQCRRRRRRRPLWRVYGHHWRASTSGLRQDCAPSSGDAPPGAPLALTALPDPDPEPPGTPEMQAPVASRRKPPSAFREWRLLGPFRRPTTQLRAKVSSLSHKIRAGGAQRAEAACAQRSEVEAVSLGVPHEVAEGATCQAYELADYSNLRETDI
# [15] = test system: U2OS; assay: Cytotoxicity against human U2OS cells after 48 hrs by Alamar Blue assay; type: cell-based
# [16] = test system: Plasma; assay: AUC (0 to 24 hrs) in Swiss albino mouse plasma at 5 mg/kg, ip; type: ADME, organism-based; parameters: time < 24 hr, dose 5 mg/kg, route intraperitoneal; conditions: in vivo
compound,measurement,setting,value
COc1cc2c(NC3CCN(C(C)C)CC3)nc(C3CCOCC3)nc2cc1OCCCN1CCCC1,IC50,[1],0.009 µM
same,t1/2,[2],0.267 h
same,IC50,[3],0.31 µM
same,EC50,[4],> 50 µM
COc1cc2c(NC3CCN(C4CC4)CC3)nc(N3CCS(=O)(=O)CC3)nc2cc1OCCCN1CCCC1,IC50,[1],0.004 µM
same,IC50,[3],0.59 µM
same,EC50,[4],> 50 µM
COc1cc2c(NC3CCN(C(C)C)CC3)nc(N3CCCCC3)nc2cc1OCCCN1CCCC1,IC50,[1],< 0.0025 µM
COc1cc2c(NC3CCN(C(C)C)CC3)nc(N3CCS(=O)(=O)CC3)nc2cc1OCCCN1CCCC1,IC50,[1],0.014 µM
COc1cc2c(NC3CCN(C(C)C)CC3)nc(N3CC(F)(F)C(F)(F)C3)nc2cc1OCCCN1CCCC1,IC50,[1],0.026 µM
same,t1/2,[2],> 1.5 h
COc1cc2c(NC3CCN(C(C)C)CC3)nc(N3CCC(F)(F)CC3)nc2cc1OCCCN1CCCC1,Cmax,[5],0.068 µg/mL
same,AUC(0-t) at 24 h,[6],0.412 µg·h/mL
same,Cmax,[7],0.947 µg/mL
same,Ki,[8],0.045 µM
same,EC50,[9],3.5 µM
same,t1/2,[2],> 1.5 h
same,Ki,[10],0.9 µM
same,EC50,[11],8.9 µM
same,Ki,[12],> 10 µM
same,BPR,[13],0.33
same,Ki,[14],4.5 µM
same,EC50,[15],6 µM
same,EC50,[4],16.7 µM
same,AUC,[16],1.265 µg·h/mL
COc1cc2c(NC3CCN(C(C)C)CC3)nc(C3CCCCC3)nc2cc1OCCCN1CCC(F)(F)CC1,IC50,[1],> 26 µM
COc1cc2c(NC3CCN(C(C)C)CC3)nc(C3CCCCC3)nc2cc1OCCCN1CCCC1,Cmax,[7],0.066 µg/mL
same,t1/2,[2],1.22 h
same,AUC,[16],0.404 µg·h/mL
COc1cc2c(NC3CCN(C(C)C)CC3)nc(N3CCOCC3)nc2cc1OCCCN1CCCC1,Cmax,[5],0.099 µg/mL
same,AUC(0-t) at 24 h,[6],0.721 µg·h/mL
same,Cmax,[7],0.731 µg/mL
same,t1/2,[2],> 1.5 h
same,BPR,[13],0.68
same,EC50,[4],23.7 µM
same,AUC,[16],1.061 µg·h/mL
COc1cc2c(NC3CCN(C(C)C)CC3)nc(N3CCCCCC3)nc2cc1OCCCN1CCCC1,IC50,[1],< 0.0025 µM
COc1cc2c(NC3CCN(C(C)C)CC3)nc(C3CCOCC3)nc2cc1OCCCN1CCC(F)(F)CC1,IC50,[1],> 50 µM
same,t1/2,[2],0.167 h
COc1cc2c(NC3CCN(C4CC4)CC3)nc(N3CCC(F)(F)CC3)nc2cc1OCCCN1CCCC1,IC50,[1],0.003 µM
same,IC50,[3],0.31 µM
same,EC50,[4],14.7 µM

# From ChEMBL document CHEMBL2440019, “Discovery of an in vivo chemical probe of the lysine methyltransferases G9a and GLP” (J Med Chem, 2013)
